From ChEMBL document CHEMBL6153135, “Rational Design of a Potent, Selective, and Metabolically Stable CDK9 Inhibitor to Counteract Osimertinib Resistance through Mcl-1 Suppression and Enhanced BRD4 Co-Targeting” (J Med Chem, 2025)
pIC50: −log10 of the molar value. Active and inactive are the calls of the source. The rule behind the calls is not given here.

Key:
[1] = molecular target: CDK6/cyclin D1 (Homo sapiens) (UniProt P24385+Q00534); experiment: Inhibition of CDK6/Cyclin D1(unknown origin) at 100 nM preincubated for 10 mins followed by substrate/ATP measured after 60 mins by ADP-Glo assay relative to control; format: protein-complex assay; settings: time 70.0 min
[2] = Metabolic stability in rat liver microsomes assessed as clearance measured for 5 to 60 mins by LC-MS/MS analysis; format: ADME, Microsome; settings: time 5-60 min, read-out: CLH
[3] = AUC (0 to t) in BALB/c mouse at 2 mg/kg, iv; format: ADME, organism-based; settings: in vivo
[4] = system: Osimertinib-resistant HCC827 cell; experiment: Upregulation of c-Myc mRNA level in human Osimertinib-resistant HCC827 cells by RNA-Seq analysis; format: functional, cell-based
[5] = AUC (0 to t) in Sprague-Dawley rat at 2 mg/kg, iv; format: ADME, organism-based; settings: in vivo
[6] = Metabolic stability in human liver S9 fraction assessed as clearance measured for 5 to 60 mins by LC-MS/MS analysis; format: ADME, subcellular; settings: time 5-60 min, read-out: CLH
[7] = molecular target: Cyclin-dependent kinase 9 (Homo sapiens) (UniProt P50750); experiment: Inhibition of CDK9 in human Osimertinib-resistant NCI-H1975 cells assessed as decrease in Mcl-1 level incubated for 12 hrs by Western blot analysis; format: cell-based; settings: Osimertinib-resistant NCI-H1975 cell, dose 50-500 nM
[8] = Metabolic stability in dog liver microsomes assessed as clearance measured for 5 to 60 mins by LC-MS/MS analysis; format: ADME, Canis lupus familiaris, Microsome; settings: time 5-60 min, read-out: CLH
[9] = Metabolic stability in human liver microsomes assessed as half life measured for 5 to 60 mins by LC-MS/MS analysis; format: ADME, Microsome; settings: time 5-60 min
[10] = Clearance in Sprague-Dawley rat at 20 mg/kg, po; format: ADME, organism-based; settings: in vivo
[11] = system: Osimertinib-resistant HCC827 cell; experiment: Inhibition of Hippo signaling in human Osimertinib-resistant HCC827 cells in presence of JQ1 by KEGG analysis; format: cell-based
[12] = molecular target: Cyclin-dependent kinase 2/cyclin E1 (Homo sapiens) (UniProt P24864+P24941); experiment: Inhibition of CDK2/cyclin E1 (unknown origin) at 100 nM preincubated for 10 mins followed by substrate/ATP measured after 60 mins by ADP-Glo assay relative to control; format: protein-complex assay; settings: time 70.0 min
Mus musculus = experiment: In vivo inhibition of CDK9 in BALB-c nude mouse xenografted with human Osimertinib-resistant HCC827 cells assessed as decrease in Mcl-1 level in tumor tissue at 5 mg/kg, iv in presence of JQ1 by Western blot analysis; format: functional, organism-based
A549 = experiment: Anti-proliferative activity against human A549 cells assessed as cell inhibition measured after 72 hrs by MTT assay; format: functional, cell-based; settings: A549, 72 h
[13] = system: Osimertinib-resistant NCI-H1975 cell; experiment: Induction of apoptosis in human Osimertinib-resistant NCI-H1975 cells assessed as early apoptotic cells at 2 uM incubated for 16 hrs by Annexin V-FITC/PI staining based flow cytometry (reference value: 8.02 %); format: functional
CDK2/Cyclin A2 = CDK2/Cyclin A2 (Homo sapiens, UniProt P24941); experiment: Inhibition of CDK2/Cyclin A2 (unknown origin) preincubated for 10 mins followed by substrate/ATP measured after 60 mins by ADP-Glo assay; format: protein-complex assay
NCI-H1975 [14] = experiment: Antitumor activity against human NCI-H1975 cells xenografted in BALB-c nude mouse assessed as tumor growth inhibition at 5 mg/kg, iv; format: functional, organism-based
[15] = Tmax in Sprague-Dawley rat at 20 mg/kg, po; format: ADME, organism-based; settings: in vivo
[16] = system: Osimertinib-resistant HCC827 cell; experiment: Inhibition of cell cycle regulation in human Osimertinib-resistant HCC827 cells by KEGG analysis; format: functional, cell-based
[17] = AUC (0 to infinity) in BALB/c mouse at 2 mg/kg, iv; format: ADME, organism-based; settings: in vivo
[18] = molecular target: Homeodomain-interacting protein kinase 4 (Homo sapiens) (UniProt Q8NE63); experiment: Inhibition of HIPK4 (unknown origin) at 100 nM preincubated for 10 mins followed by substrate/ATP measured after 60 mins by ADP-Glo assay relative to control; settings: time 70.0 min
[19] = molecular target: Cyclin-dependent kinase 9 (Homo sapiens) (UniProt P50750); experiment: Inhibition of CDK9 in human Osimertinib-resistant HCC827 cells assessed as decrease in Mcl-1 level at 100 nM incubated for 12 hrs in presence of JQ1 by Western blot analysis; format: cell-based; settings: Osimertinib-resistant HCC827 cell
[20] = molecular target: Cyclin-dependent kinase 4/cyclin D1 (Homo sapiens) (UniProt P11802+P24385); experiment: Inhibition of CDK4/Cyclin D1 (unknown origin) at 100 nM preincubated for 10 mins followed by substrate/ATP measured after 60 mins by ADP-Glo assay relative to control; format: protein-complex assay; settings: time 70.0 min
[21] = molecular target: Homeodomain-interacting protein kinase 3 (Homo sapiens) (UniProt Q9H422); experiment: Inhibition of HIPK3 (unknown origin) at 100 nM preincubated for 10 mins followed by substrate/ATP measured after 60 mins by ADP-Glo assay relative to control; settings: time 70.0 min
[22] = system: Osimertinib-resistant NCI-H1975 cell; experiment: Induction of apoptosis in human Osimertinib-resistant NCI-H1975 cells assessed as late apoptotic cells at 2 uM incubated for 16 hrs by Annexin V-FITC/PI staining based flow cytometry (reference value: 1.42 %); format: functional
[23] = Clearance in BALB/c mouse at 15 mg/kg, po; format: ADME, organism-based; settings: in vivo
[24] = molecular target: Glycogen synthase kinase-3 beta (Homo sapiens) (UniProt P49841); experiment: Inhibition of GSK3beta (unknown origin) at 100 nM preincubated for 10 mins followed by substrate/ATP measured after 60 mins by ADP-Glo assay relative to control; settings: time 70.0 min
HCC827 = experiment: Anti-proliferative activity against human HCC827 cells assessed as cell inhibition measured after 72 hrs by MTT assay; format: functional, cell-based; settings: HCC827, 72 h
NCI-H1975 [25] = experiment: Antitumor activity against human NCI-H1975 cells xenografted in BALB-c nude mouse assessed as tumor growth inhibition at 5 mg/kg, iv in presence of JQ1 relative to control; format: functional; settings: read-out: TGI
[26] = Apparent volume of distribution in BALB/c mouse at 15 mg/kg, po; format: ADME, organism-based; settings: in vivo
[27] = AUC (0 to infinity) in Sprague-Dawley rat at 2 mg/kg, iv; format: ADME, organism-based; settings: in vivo
[28] = system: Osimertinib-resistant HCC827 cell; experiment: Inhibition of stem cell multi-functionality signaling in human Osimertinib-resistant HCC827 cells by KEGG analysis; format: functional, cell-based
PC-9 = experiment: Anti-proliferative activity against human PC-9 cells assessed as cell inhibition measured after 72 hrs by MTT assay; format: functional, cell-based; settings: PC-9, 72 h
[29] = system: Osimertinib-resistant NCI-H1975 cell; experiment: Inhibition of colony formation in human Osimertinib-resistant NCI-H1975 cells at 25 nM measured after 14 days by crystal violet staining based analysis relative to control; format: functional; settings: 336 h, time 14 day
[30] = system: Lewis lung carcinoma cell line; experiment: Anti-proliferative activity against Lewis lung carcinoma cells assessed as cell inhibition measured after 72 hrs by MTT assay; format: functional, cell-based; settings: Mus musculus
[31] = Selectivity ratio of IC50 for anti-proliferative activity against human Osimertinib-resistant HCC827 cells to IC50 for anti-proliferative activity against human Osimertinib-resistant HCC827 cells in presence of JQ1; format: functional
[32] = Apparent volume of distribution in BALB/c mouse at 2 mg/kg, iv; format: ADME, organism-based; settings: in vivo, read-out: Vz
[33] = system: Osimertinib-resistant NCI-H1975 cell; experiment: Induction of apoptosis in human Osimertinib-resistant NCI-H1975 cells assessed as necrotic cells at 2 uM incubated for 16 hrs by Annexin V-FITC/PI staining based flow cytometry (reference value: 1.17 %); format: functional

Cyclin-dependent kinase 9 (Homo sapiens), sequence (P50750 whole entry): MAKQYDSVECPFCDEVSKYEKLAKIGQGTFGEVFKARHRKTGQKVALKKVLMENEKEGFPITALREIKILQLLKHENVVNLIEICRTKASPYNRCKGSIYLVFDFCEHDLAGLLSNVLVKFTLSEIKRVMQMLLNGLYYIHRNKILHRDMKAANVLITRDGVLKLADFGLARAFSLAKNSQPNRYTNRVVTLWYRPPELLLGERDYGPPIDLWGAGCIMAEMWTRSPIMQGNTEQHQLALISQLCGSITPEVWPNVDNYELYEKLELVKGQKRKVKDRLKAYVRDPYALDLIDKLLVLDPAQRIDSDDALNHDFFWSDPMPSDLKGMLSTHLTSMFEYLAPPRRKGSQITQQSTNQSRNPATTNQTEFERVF
Homeodomain-interacting protein kinase 3 (Homo sapiens), sequence (Q9H422 whole entry, looked up): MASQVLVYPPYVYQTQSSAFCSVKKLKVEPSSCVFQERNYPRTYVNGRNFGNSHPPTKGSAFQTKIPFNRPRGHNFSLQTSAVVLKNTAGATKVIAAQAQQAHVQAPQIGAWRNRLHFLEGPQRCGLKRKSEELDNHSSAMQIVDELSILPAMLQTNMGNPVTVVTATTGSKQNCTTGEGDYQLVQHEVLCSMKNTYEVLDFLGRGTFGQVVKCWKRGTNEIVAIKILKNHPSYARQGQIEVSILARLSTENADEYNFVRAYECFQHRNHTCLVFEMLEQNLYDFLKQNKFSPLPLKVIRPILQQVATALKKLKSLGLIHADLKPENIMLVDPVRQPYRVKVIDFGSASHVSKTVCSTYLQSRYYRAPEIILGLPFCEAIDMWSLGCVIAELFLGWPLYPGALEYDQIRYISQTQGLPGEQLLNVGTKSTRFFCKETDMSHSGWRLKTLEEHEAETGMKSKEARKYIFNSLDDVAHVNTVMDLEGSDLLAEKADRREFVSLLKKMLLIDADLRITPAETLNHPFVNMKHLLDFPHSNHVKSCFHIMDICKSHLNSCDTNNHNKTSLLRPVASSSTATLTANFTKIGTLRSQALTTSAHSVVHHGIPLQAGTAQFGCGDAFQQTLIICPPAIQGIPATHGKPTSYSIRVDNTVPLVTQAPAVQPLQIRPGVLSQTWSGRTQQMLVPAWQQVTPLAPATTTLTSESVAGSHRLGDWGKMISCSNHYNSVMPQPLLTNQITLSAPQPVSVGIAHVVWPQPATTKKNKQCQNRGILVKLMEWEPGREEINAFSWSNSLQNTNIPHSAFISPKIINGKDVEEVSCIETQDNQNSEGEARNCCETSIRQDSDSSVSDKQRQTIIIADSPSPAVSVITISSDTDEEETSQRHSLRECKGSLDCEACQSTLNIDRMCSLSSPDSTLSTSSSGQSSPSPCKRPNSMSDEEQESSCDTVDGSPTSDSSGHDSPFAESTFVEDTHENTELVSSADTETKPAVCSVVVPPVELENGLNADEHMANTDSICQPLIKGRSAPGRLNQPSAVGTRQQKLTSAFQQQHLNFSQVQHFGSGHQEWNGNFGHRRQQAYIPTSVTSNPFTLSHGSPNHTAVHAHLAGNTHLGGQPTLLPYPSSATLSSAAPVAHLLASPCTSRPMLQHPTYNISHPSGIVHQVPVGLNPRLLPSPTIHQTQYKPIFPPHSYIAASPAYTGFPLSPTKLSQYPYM
Homeodomain-interacting protein kinase 4 (Homo sapiens), sequence (Q8NE63 whole entry): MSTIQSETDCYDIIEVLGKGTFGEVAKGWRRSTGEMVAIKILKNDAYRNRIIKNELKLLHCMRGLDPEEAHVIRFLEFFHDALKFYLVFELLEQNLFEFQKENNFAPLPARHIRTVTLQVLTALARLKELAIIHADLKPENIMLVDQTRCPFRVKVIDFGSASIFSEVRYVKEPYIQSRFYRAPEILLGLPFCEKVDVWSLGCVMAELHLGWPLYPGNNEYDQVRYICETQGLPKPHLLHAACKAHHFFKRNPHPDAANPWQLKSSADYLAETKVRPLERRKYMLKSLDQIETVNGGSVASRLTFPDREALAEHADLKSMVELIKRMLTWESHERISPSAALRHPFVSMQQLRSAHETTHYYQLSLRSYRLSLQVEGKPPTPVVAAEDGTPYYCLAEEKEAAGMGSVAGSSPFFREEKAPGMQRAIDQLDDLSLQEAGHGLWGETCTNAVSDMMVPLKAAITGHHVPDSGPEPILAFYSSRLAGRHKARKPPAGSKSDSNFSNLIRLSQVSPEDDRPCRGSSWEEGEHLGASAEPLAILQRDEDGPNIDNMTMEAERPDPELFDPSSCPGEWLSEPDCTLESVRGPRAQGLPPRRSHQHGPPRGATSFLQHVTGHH
Glycogen synthase kinase-3 beta (Homo sapiens), sequence (P49841 whole entry, looked up): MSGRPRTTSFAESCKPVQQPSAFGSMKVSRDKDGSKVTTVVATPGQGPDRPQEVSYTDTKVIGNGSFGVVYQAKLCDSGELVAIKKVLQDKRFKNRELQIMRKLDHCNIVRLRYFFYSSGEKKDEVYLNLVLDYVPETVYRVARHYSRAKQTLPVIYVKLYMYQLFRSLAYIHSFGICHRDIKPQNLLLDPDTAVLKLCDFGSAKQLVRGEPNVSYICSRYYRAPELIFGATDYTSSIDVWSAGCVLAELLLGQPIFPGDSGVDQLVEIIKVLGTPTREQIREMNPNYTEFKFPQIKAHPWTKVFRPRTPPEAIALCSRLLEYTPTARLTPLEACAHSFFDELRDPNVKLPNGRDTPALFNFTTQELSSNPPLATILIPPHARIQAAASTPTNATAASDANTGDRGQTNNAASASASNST

inhibition [1]: 33.1% | microsomal CLint [2]: 38.4 µL/min/mg | AUC(0-t) [3]: 380 ng·h/mL | AUC(0-t) [5]: 2530 ng·h/mL | microsomal CLint [6]: 14.2 µL/min/mg | inhibition [7]: Dose-dependent-effect | microsomal CLint [8]: 18.4 µL/min/mg | half-life [9]: 2.14 h | CL/F [10]: 63.3 mL/min/kg | inhibition [12]: 50.2% | pIC50 (A549): 6.85 | pIC50 (CDK2/Cyclin A2): 6.90 | Tmax [15]: 0.83 h | AUC(0-inf) [17]: 396 ng·h/mL | inhibition [18]: 87.6% | inhibition [19]: Active | inhibition [20]: 25.7% | inhibition [21]: 82.5% | CL/F [23]: 350 mL/min/kg | inhibition [24]: 94.1% | pIC50 (HCC827): 6.82 | Vz [26]: 109.3 L/kg | AUC(0-inf) [27]: 2550 ng·h/mL | pIC50 (PC-9): 6.85 | pIC50 [30]: 6.77 | Vd [32]: 30.7 L/kg
SMILES: CC(=O)N1CCC(NC(=O)c2ccc3cc2OCCCCCCOc2cc(ccc2F)-c2nc(ncc2F)N3)CC1
Activity [4]: Active | inhibition [11]: Active | inhibition (Mus musculus): Active | Activity [13]: 26% | inhibition (NCI-H1975 [14]): inactive | inhibition [16]: Active | Activity [22]: 22% | inhibition in vivo at 5 mg/kg (NCI-H1975 [25]): 60% | inhibition [28]: Active | inhibition at 0.025 µM [29]: 100% | Ratio IC50 [31]: 10 | Activity [33]: 0.97%
